Each block holds one compound with its values, some of them ahead of it.
Assay: Particle size distribution (Dv10, Dv50, Dv90, span) of processed API particles
Format: physicochemical
Excerpt: The most common approach for expressing particle size results is to report Dv10, Dv50, and Dv90 values based on a volume distribution. The span calculation [(Dv90−Dv10)/Dv50] is the most common format to express distribution width.
The terms Dv10, Dv50, and Dv90 as discussed herein are known to those skilled in the art. Dv50 refers to the maximum particle diameter below which 50% of the sample volume exists. Dv90 refers to the maximum particle diameter below which 90% of the sample volume exists. Dv10 refers to the maximum particle diameter below which 10% of the sample volume exists. The term particle size distribution span refers to the result of the calculation [(Dv90−Dv10)/Dv50].

[1] = Comparison, process of WO2011131947 (water), product isolated by spray drying (45° C.)
[2] = Comparison, process of WO2011131947, suspension in anti-solvent water, after size reduction (750 bar, 45 cycles)
[3] = Example 2, invention, product isolated by spray drying (45° C.)
[4] = Example 2, invention, suspension in water/acetone, after particle size reduction (microfluidizer 750 bar, 45 cycles)
[5] = Example 2, invention, water/acetone, after aging for 22 hours
[6] = Example 1, after aging for 20 hours without stirring at room temperature
[7] = Example 1, product isolated by spray drying (100° C.) after distillation to approx. 100% heptane
[8] = Example 1, suspension in n-heptane/ethyl acetate, after particle size reduction (microfluidizer 400 bar, 50 cycles)

- Dv10 [1]: 0.99 μm
- Dv50 [1]: 1.94 μm
- Dv90 [1]: 3.60 μm
- span [(Dv90-Dv10)/Dv50] [1]: 1.4
- Dv10 [2]: 1.28 μm
- Dv50 [2]: 2.44 μm
- Dv90 [2]: 4.45 μm
- span [(Dv90-Dv10)/Dv50] [2]: 1.3
- Dv10 [3]: 1.38 μm
- Dv50 [3]: 2.42 μm
- Dv90 [3]: 4.18 μm
- span [(Dv90-Dv10)/Dv50] [3]: 1.2
- Dv10 [4]: 0.92 μm
- Dv50 [4]: 1.81 μm
- Dv90 [4]: 3.39 μm
- span [(Dv90-Dv10)/Dv50] [4]: 1.4
- Dv10 [5]: 1.42 μm
- Dv50 [5]: 2.53 μm
- Dv90 [5]: 4.43 μm
- span [(Dv90-Dv10)/Dv50] [5]: 1.2
Compound: CCC(=O)O[C@]1(C(=O)SCF)[C@H](C)C[C@H]2[C@@H]3C[C@H](F)C4=CC(=O)C=C[C@]4(C)[C@@]3(F)[C@@H](O)C[C@@]21C [Fluticasone propionate]

Compound: C[N+]1(C)[C@@H]2C[C@@H](OC(=O)C(O)(c3cccs3)c3cccs3)C[C@H]1[C@@H]1O[C@@H]12 [Tiotropium Bromide]
- Dv10 [6]: 0.78 μm
- Dv50 [6]: 3.33 μm
- Dv90 [6]: 7.45 μm
- span [(Dv90-Dv10)/Dv50] [6]: 2.0
- Dv10 [7]: 0.83 μm
- Dv50 [7]: 3.02 μm
- Dv90 [7]: 7.05 μm
- span [(Dv90-Dv10)/Dv50] [7]: 2.1
- Dv10 [8]: 0.67 μm
- Dv50 [8]: 2.98 μm
- Dv90 [8]: 7.09 μm
- span [(Dv90-Dv10)/Dv50] [8]: 2.2

From patent US10328027B2, “Assisted particle size reduction process” (HOVIONE INTERNATIONAL LTD, priority 2014, dated 2019)
